In PubChem BioAssay AID2060502 (Molecular Pharmacology Branch, DTP, NCI, 2025):

System: 885724-159-R-J1-PDC complex spheroid viability
Test: Anticancer human tumor 885724-159-R-J1-PDC patient-derived pancreatic adenocarcinoma cell line growth inhibition [GQUAD]
Conditions: for IC50: curve of first compound; for viability, T/C: stronger effect = lower value; active = viability on the fitted dose curve at most 10% of control; inactive = the rest
In short: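 Tumor cells were grown as complex spheroids with HUVEC endothelial cells and mesenchymal stem cells as stroma. G-quadruplex stabilizers were combined with targeted agents over half-log dilutions from near the clinical Cmax, or from 10 microM.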

[1] = second compound 0.0316 µM, first compound 0.000999 µM
[2] = second compound 0.0316 µM, first compound 0.00316 µM
[3] = second compound 0.0316 µM, first compound 0.00999 µM
[4] = second compound 0.0316 µM, first compound 0.0316 µM
[5] = second compound 0.0316 µM, first compound 0.0999 µM
[6] = second compound 0.0316 µM, first compound 0.316 µM
[7] = second compound 0.1 µM, first compound 0.000999 µM
[8] = second compound 0.1 µM, first compound 0.00316 µM
[9] = second compound 0.1 µM, first compound 0.00999 µM
[10] = second compound 0.1 µM, first compound 0.0316 µM
[11] = second compound 0.1 µM, first compound 0.0999 µM
[12] = second compound 0.1 µM, first compound 0.316 µM
[13] = second compound 0.316 µM, first compound 0.000999 µM
[14] = second compound 0.316 µM, first compound 0.00316 µM
[15] = second compound 0.316 µM, first compound 0.00999 µM
[16] = second compound 0.316 µM, first compound 0.0316 µM
[17] = second compound 0.316 µM, first compound 0.0999 µM
[18] = second compound 0.316 µM, first compound 0.316 µM
[19] = second compound 1 µM, first compound 0.000999 µM
[20] = second compound 1 µM, first compound 0.00316 µM
[21] = second compound 1 µM, first compound 0.00999 µM
[22] = second compound 1 µM, first compound 0.0316 µM
[23] = second compound 1 µM, first compound 0.0999 µM
[24] = second compound 1 µM, first compound 0.316 µM
[25] = second compound 3.16 µM, first compound 0.000999 µM
[26] = second compound 3.16 µM, first compound 0.00316 µM
[27] = second compound 3.16 µM, first compound 0.00999 µM
[28] = second compound 3.16 µM, first compound 0.0316 µM
[29] = second compound 3.16 µM, first compound 0.0999 µM
[30] = second compound 3.16 µM, first compound 0.316 µM
[31] = second compound 10 µM, first compound 0.000999 µM
[32] = second compound 10 µM, first compound 0.00316 µM
[33] = second compound 10 µM, first compound 0.00999 µM
[34] = second compound 10 µM, first compound 0.0316 µM
[35] = second compound 10 µM, first compound 0.0999 µM
[36] = second compound 10 µM, first compound 0.316 µM
[37] = second compound 0.0316 µM, first compound 0.1 µM
[38] = second compound 0.0316 µM, first compound 1 µM
[39] = second compound 0.0316 µM, first compound 3.16 µM
[40] = second compound 0.0316 µM, first compound 10 µM
[41] = second compound 0.1 µM, first compound 0.1 µM
[42] = second compound 0.1 µM, first compound 1 µM
[43] = second compound 0.1 µM, first compound 3.16 µM
[44] = second compound 0.1 µM, first compound 10 µM
[45] = second compound 0.316 µM, first compound 0.1 µM
[46] = second compound 0.316 µM, first compound 1 µM
[47] = second compound 0.316 µM, first compound 3.16 µM
[48] = second compound 0.316 µM, first compound 10 µM
[49] = second compound 1 µM, first compound 0.1 µM
[50] = second compound 1 µM, first compound 1 µM
[51] = second compound 1 µM, first compound 3.16 µM
[52] = second compound 1 µM, first compound 10 µM
[53] = second compound 3.16 µM, first compound 0.1 µM
[54] = second compound 3.16 µM, first compound 1 µM
[55] = second compound 3.16 µM, first compound 3.16 µM
[56] = second compound 3.16 µM, first compound 10 µM
[57] = second compound 10 µM, first compound 0.1 µM
[58] = second compound 10 µM, first compound 1 µM
[59] = second compound 10 µM, first compound 3.16 µM
[60] = second compound 10 µM, first compound 10 µM
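Note: spheroids exposed to agents for seven days before readout.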
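Throughout, for viability, T/C: percent of vehicle control viability where 100% = DMSO wells.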

CCc1c2c(nc3ccc(O)cc13)-c1cc3c(c(=O)n1C2)COC(=O)[C@]3(O)CC + CN(C)c1ccc(Nc2c3ccc(NC(=O)CCN4CCCC4)cc3nc3cc(NC(=O)CCN4CCCC4)ccc23)cc1
inactive: viability, T/C [1] 93.4% | viability, T/C [2] 78.9% | viability, T/C [3] 66.8% | viability, T/C [4] 56.9% | viability, T/C [5] 50.8% | viability, T/C [6] 9.22% | viability, T/C [7] 93.7% | viability, T/C [8] 72.2% | viability, T/C [9] 63.6% | viability, T/C [10] 59.7% | viability, T/C [11] 51.1% | viability, T/C [12] 7.61% | viability, T/C [13] 83.1% | viability, T/C [14] 73.1% | viability, T/C [15] 63.9% | viability, T/C [16] 48.1% | viability, T/C [17] 51.6% | viability, T/C [18] 9.1% | viability, T/C [19] 83.3% | viability, T/C [20] 65% | viability, T/C [21] 56.6% | viability, T/C [22] 47.4% | viability, T/C [23] 41.8% | viability, T/C [24] 9.11% | viability, T/C [25] 67.1% | viability, T/C [26] 60.4% | viability, T/C [27] 53.7% | viability, T/C [28] 42.7% | viability, T/C [29] 40.1% | viability, T/C [30] 8.41% | viability, T/C [31] 71% | viability, T/C [32] 70.1% | viability, T/C [33] 50.2% | viability, T/C [34] 42.9% | viability, T/C [35] 39.2% | viability, T/C [36] 9.18%
56.8 nM: IC50 (second compound 0.0316 µM)
20 nM: IC50 (second compound 10 µM)
59.5 nM: IC50 (second compound 0.1 µM)
23.8 nM: IC50 (second compound 1 µM)
48.8 nM: IC50 (second compound 0.316 µM)
21.7 nM: IC50 (second compound 3.16 µM)

C=CCn1c(=O)c2cnc(Nc3ccc(N4CCN(C)CC4)cc3)nc2n1-c1cccc(C(C)(C)O)n1 + Cc1[nH]c2ccc(F)cc2c1-c1nc2c3cccnc3c3ncccc3c2[nH]1
455 nM: IC50 (second compound 10 µM)
inactive: viability, T/C [4] 88.7% | viability, T/C [37] 87.8% | viability, T/C [6] 71.1% | viability, T/C [38] 63.7% | viability, T/C [39] 68.8% | viability, T/C [40] 73.9% | viability, T/C [10] 90.3% | viability, T/C [41] 90% | viability, T/C [12] 84.3% | viability, T/C [42] 79.6% | viability, T/C [43] 63.5% | viability, T/C [44] 71.8% | viability, T/C [16] 83.1% | viability, T/C [45] 83.1% | viability, T/C [18] 68.7% | viability, T/C [46] 57.6% | viability, T/C [47] 74% | viability, T/C [48] 67.1% | viability, T/C [22] 70.9% | viability, T/C [49] 55.3% | viability, T/C [24] 52.1% | viability, T/C [50] 49.9% | viability, T/C [51] 50.9% | viability, T/C [52] 41.3% | viability, T/C [28] 12.9% | viability, T/C [34] 63.5% | viability, T/C [57] 58.5% | viability, T/C [36] 47.3% | viability, T/C [58] 47% | viability, T/C [59] 50% | viability, T/C [60] 38.1%
< 31.6 nM: IC50 (second compound 3.16 µM)
558 nM: IC50 (second compound 1 µM)
> 10000 nM: IC50 (second compound 0.0316 µM) | IC50 (second compound 0.1 µM) | IC50 (second compound 0.316 µM)
active: viability, T/C [53] 8.26% | viability, T/C [30] 11.1% | viability, T/C [54] 5.9% | viability, T/C [55] 9.96% | viability, T/C [56] 8.31%

Cc1[nH]c2ccccc2c1CCNCc1ccc(/C=C/C(=O)NO)cc1 + Cc1cnc(CNC(=O)c2c(=O)c3ccc(N4CCCN(C)CC4)nc3n3c2sc2ccccc23)cn1
93.5 nM: IC50 (second compound 3.16 µM)
291 nM: IC50 (second compound 0.0316 µM)
inactive: viability, T/C [1] 111% | viability, T/C [2] 103% | viability, T/C [3] 89.7% | viability, T/C [4] 95.4% | viability, T/C [5] 97.5% | viability, T/C [6] 46.4% | viability, T/C [7] 100% | viability, T/C [8] 114% | viability, T/C [9] 117% | viability, T/C [10] 98.8% | viability, T/C [11] 67.2% | viability, T/C [12] 44.7% | viability, T/C [13] 107% | viability, T/C [14] 103% | viability, T/C [15] 102% | viability, T/C [16] 83.1% | viability, T/C [17] 72.8% | viability, T/C [18] 34.5% | viability, T/C [19] 90% | viability, T/C [20] 78.6% | viability, T/C [21] 75.8% | viability, T/C [22] 71.5% | viability, T/C [23] 53.5% | viability, T/C [24] 37% | viability, T/C [25] 79.3% | viability, T/C [26] 72.5% | viability, T/C [27] 68% | viability, T/C [28] 63.6% | viability, T/C [29] 49.3% | viability, T/C [30] 30.6% | viability, T/C [31] 69.1% | viability, T/C [32] 73.7% | viability, T/C [33] 56.9% | viability, T/C [34] 46.1% | viability, T/C [35] 35.4% | viability, T/C [36] 23.8%
137 nM: IC50 (second compound 1 µM)
241 nM: IC50 (second compound 0.1 µM)
193 nM: IC50 (second compound 0.316 µM)
23.8 nM: IC50 (second compound 10 µM)

CC1COCCN1c1cc(C2(S(C)(=N)=O)CC2)nc(-c2ccnc3[nH]ccc23)n1 (stereo not drawn) + Cc1cnc(CNC(=O)c2c(=O)c3ccc(N4CCCN(C)CC4)nc3n3c2sc2ccccc23)cn1
> 10000 nM: IC50 (second compound 0.0316 µM) | IC50 (second compound 0.1 µM) | IC50 (second compound 0.316 µM) | IC50 (second compound 1 µM) | IC50 (second compound 3.16 µM) | IC50 (second compound 10 µM)
inactive: viability, T/C [4] 101% | viability, T/C [37] 105% | viability, T/C [6] 110% | viability, T/C [38] 106% | viability, T/C [39] 81.5% | viability, T/C [40] 92.3% | viability, T/C [10] 118% | viability, T/C [41] 105% | viability, T/C [12] 116% | viability, T/C [42] 108% | viability, T/C [43] 103% | viability, T/C [44] 91.2% | viability, T/C [16] 114% | viability, T/C [45] 99% | viability, T/C [18] 98.3% | viability, T/C [46] 87.3% | viability, T/C [47] 86% | viability, T/C [48] 86.7% | viability, T/C [22] 93.5% | viability, T/C [49] 78.5% | viability, T/C [24] 81.6% | viability, T/C [50] 87.2% | viability, T/C [51] 90.7% | viability, T/C [52] 67.1% | viability, T/C [28] 82% | viability, T/C [53] 80.4% | viability, T/C [30] 70.5% | viability, T/C [54] 79.8% | viability, T/C [55] 83% | viability, T/C [56] 60.2% | viability, T/C [34] 72.8% | viability, T/C [57] 73.4% | viability, T/C [36] 72.6% | viability, T/C [58] 72.1% | viability, T/C [59] 78% | viability, T/C [60] 59.5%
